{"source": "patent US20010053796A1", "about": "“Delta-aminolevulinic acid for prevention and treatment of infection microorganisms and parasite” (priority 2000, published 2001)", "tested_on": "Scutica", "experiment": "Extinction effect for Scutica in vitro", "type": "cell-based", "experimental": "Scutica used in this experiment was taken from epidermal mucus of infected flatfish and suspended in HBSS. The suspension was kept at room temperature for 30 min and centrifuged at 800 rpm for 10 min. The supernatant was removed. The pellet was suspended in MEM-10 (minimum essential medium, 10% FBS, streptomycine, penicilin) and kept for 30 min, and then centrifuged in the same manner as above. The supernatant was removed and left imagoes was gained and made into imagoes suspension with certain number of imagoes by counting with the blood counting machine. The imagoes suspension was subcultured in vitro and inoculated to prepared FHM cell of certain number (2.5×10^5 cells/mL) and then cultured at 17° C. Before carrying out the experiment, by measuring the extinction effect for Scutica according to the concentration of δ-aminolevulinic acid and reaction time, optimum δ-aminolevulinic acid concentration and treatment time was examined for Scutica extermination. The Scutica culture solution cultured in FHM cell line was centrifuged at 3000 rpm for 5 min. The supernatant was removed and was added to PBS. It was washed 3 times to use for the experiment. 1.0 M δ-aminolevulinic acid solution made from sterilized 3rd distilled water was diluted by 2-fold up to 1000-fold (1.0 mM). Scutica was added to each well of 96-well microplate at an amount of 50 μL. Then, δ-aminolevulinic acid solution diluted by 2 steps were added and cultured for 120 min while the viability of Scutica was monitored. During the culture for 120 min, extinction time was measured in 10 min intervals, at each concentration. Between each inoculation, they were stirred for 5 min and were kept for 5 min. after reaction, 1% trypan blue which is staining solution for organism was added to each wells at an amount of 100 μL and mixed. In cultured Scutica with the diluted solution of δ-aminolevulinic acid, the number of parasites was counted by the blood counting machine, according to time. […] Through the 60 min-treatment, more than 50% of Scutica were extinct. At the actual concentration of 2 mM, about 50% of Scutica was extinct through 1 hour-treatment.", "note": "Where two headings read alike, the source gives them in different places.", "data": [{"smiles": "NCC(=O)CCC(=O)O", "note": "[δ-aminolevulinic acid]", "values": [{"measurement": "viability at 15000 µM", "setting": "read-out: Viability (%) of Scutica, 15 mM, reaction time 60", "value": 0, "unit": "%"}, {"measurement": "viability at 15000 µM", "setting": "read-out: Viability (%) of Scutica, 15 mM, reaction time 70", "value": 0, "unit": "%"}, {"measurement": "viability at 15000 µM", "setting": "read-out: Viability (%) of Scutica, 15 mM, reaction time 80", "value": 0, "unit": "%"}, {"measurement": "viability at 15000 µM", "setting": "read-out: Viability (%) of Scutica, 15 mM, reaction time 90", "value": 0, "unit": "%"}, {"measurement": "viability at 15000 µM", "setting": "read-out: Viability (%) of Scutica, 15 mM, reaction time 110", "value": 0, "unit": "%"}, {"measurement": "viability at 15000 µM", "setting": "read-out: Viability (%) of Scutica, 15 mM, reaction time 120", "value": 0, "unit": "%"}, {"measurement": "viability at 30000 µM", "setting": "read-out: Viability (%) of Scutica, 30 mM, reaction time 10", "value": 20, "unit": "%"}, {"measurement": "viability at 30000 µM", "setting": "read-out: Viability (%) of Scutica, 30 mM, reaction time 20", "value": 0, "unit": "%"}, {"measurement": "viability at 30000 µM", "setting": "read-out: Viability (%) of Scutica, 30 mM, reaction time 30", "value": 0, "unit": "%"}, {"measurement": "viability at 30000 µM", "setting": "read-out: Viability (%) of Scutica, 30 mM, reaction time 40", "value": 0, "unit": "%"}, {"measurement": "viability at 30000 µM", "setting": "read-out: Viability (%) of Scutica, 30 mM, reaction time 50", "value": 0, "unit": "%"}, {"measurement": "viability at 30000 µM", "setting": "read-out: Viability (%) of Scutica, 30 mM, reaction time 60", "value": 0, "unit": "%"}, {"measurement": "viability at 30000 µM", "setting": "read-out: Viability (%) of Scutica, 30 mM, reaction time 70", "value": 0, "unit": "%"}, {"measurement": "viability at 30000 µM", "setting": "read-out: Viability (%) of Scutica, 30 mM, reaction time 80", "value": 0, "unit": "%"}, {"measurement": "viability at 30000 µM", "setting": "read-out: Viability (%) of Scutica, 30 mM, reaction time 90", "value": 0, "unit": "%"}, {"measurement": "viability at 30000 µM", "setting": "read-out: Viability (%) of Scutica, 30 mM, reaction time 110", "value": 0, "unit": "%"}, {"measurement": "viability at 30000 µM", "setting": "read-out: Viability (%) of Scutica, 30 mM, reaction time 120", "value": 0, "unit": "%"}, {"measurement": "viability at 60000 µM", "setting": "read-out: Viability (%) of Scutica, 60 mM, reaction time 10", "value": 0, "unit": "%"}, {"measurement": "viability at 60000 µM", "setting": "read-out: Viability (%) of Scutica, 60 mM, reaction time 20", "value": 0, "unit": "%"}, {"measurement": "viability at 60000 µM", "setting": "read-out: Viability (%) of Scutica, 60 mM, reaction time 30", "value": 0, "unit": "%"}, {"measurement": "viability at 60000 µM", "setting": "read-out: Viability (%) of Scutica, 60 mM, reaction time 40", "value": 0, "unit": "%"}, {"measurement": "viability at 60000 µM", "setting": "read-out: Viability (%) of Scutica, 60 mM, reaction time 50", "value": 0, "unit": "%"}, {"measurement": "viability at 60000 µM", "setting": "read-out: Viability (%) of Scutica, 60 mM, reaction time 60", "value": 0, "unit": "%"}, {"measurement": "viability at 60000 µM", "setting": "read-out: Viability (%) of Scutica, 60 mM, reaction time 70", "value": 0, "unit": "%"}, {"measurement": "viability at 60000 µM", "setting": "read-out: Viability (%) of Scutica, 60 mM, reaction time 80", "value": 0, "unit": "%"}, {"measurement": "viability at 60000 µM", "setting": "read-out: Viability (%) of Scutica, 60 mM, reaction time 90", "value": 0, "unit": "%"}, {"measurement": "viability at 60000 µM", "setting": "read-out: Viability (%) of Scutica, 60 mM, reaction time 110", "value": 0, "unit": "%"}, {"measurement": "viability at 60000 µM", "setting": "read-out: Viability (%) of Scutica, 60 mM, reaction time 120", "value": 0, "unit": "%"}, {"measurement": "viability at 125000 µM", "setting": "read-out: Viability (%) of Scutica, 125 mM, reaction time 10", "value": 0, "unit": "%"}, {"measurement": "viability at 125000 µM", "setting": "read-out: Viability (%) of Scutica, 125 mM, reaction time 20", "value": 0, "unit": "%"}, {"measurement": "viability at 125000 µM", "setting": "read-out: Viability (%) of Scutica, 125 mM, reaction time 30", "value": 0, "unit": "%"}, {"measurement": "viability at 125000 µM", "setting": "read-out: Viability (%) of Scutica, 125 mM, reaction time 40", "value": 0, "unit": "%"}, {"measurement": "viability at 125000 µM", "setting": "read-out: Viability (%) of Scutica, 125 mM, reaction time 50", "value": 0, "unit": "%"}, {"measurement": "viability at 125000 µM", "setting": "read-out: Viability (%) of Scutica, 125 mM, reaction time 60", "value": 0, "unit": "%"}, {"measurement": "viability at 125000 µM", "setting": "read-out: Viability (%) of Scutica, 125 mM, reaction time 70", "value": 0, "unit": "%"}, {"measurement": "viability at 125000 µM", "setting": "read-out: Viability (%) of Scutica, 125 mM, reaction time 80", "value": 0, "unit": "%"}, {"measurement": "viability at 125000 µM", "setting": "read-out: Viability (%) of Scutica, 125 mM, reaction time 90", "value": 0, "unit": "%"}, {"measurement": "viability at 125000 µM", "setting": "read-out: Viability (%) of Scutica, 125 mM, reaction time 110", "value": 0, "unit": "%"}, {"measurement": "viability at 125000 µM", "setting": "read-out: Viability (%) of Scutica, 125 mM, reaction time 120", "value": 0, "unit": "%"}, {"measurement": "viability at 250000 µM", "setting": "read-out: Viability (%) of Scutica, 250 mM, reaction time 10", "value": 0, "unit": "%"}, {"measurement": "viability at 250000 µM", "setting": "read-out: Viability (%) of Scutica, 250 mM, reaction time 20", "value": 0, "unit": "%"}, {"measurement": "viability at 250000 µM", "setting": "read-out: Viability (%) of Scutica, 250 mM, reaction time 30", "value": 0, "unit": "%"}, {"measurement": "viability at 250000 µM", "setting": "read-out: Viability (%) of Scutica, 250 mM, reaction time 40", "value": 0, "unit": "%"}, {"measurement": "viability at 250000 µM", "setting": "read-out: Viability (%) of Scutica, 250 mM, reaction time 50", "value": 0, "unit": "%"}, {"measurement": "viability at 250000 µM", "setting": "read-out: Viability (%) of Scutica, 250 mM, reaction time 60", "value": 0, "unit": "%"}, {"measurement": "viability at 250000 µM", "setting": "read-out: Viability (%) of Scutica, 250 mM, reaction time 70", "value": 0, "unit": "%"}, {"measurement": "viability at 250000 µM", "setting": "read-out: Viability (%) of Scutica, 250 mM, reaction time 80", "value": 0, "unit": "%"}, {"measurement": "viability at 250000 µM", "setting": "read-out: Viability (%) of Scutica, 250 mM, reaction time 90", "value": 0, "unit": "%"}, {"measurement": "viability at 250000 µM", "setting": "read-out: Viability (%) of Scutica, 250 mM, reaction time 110", "value": 0, "unit": "%"}, {"measurement": "viability at 250000 µM", "setting": "read-out: Viability (%) of Scutica, 250 mM, reaction time 120", "value": 0, "unit": "%"}, {"measurement": "viability at 500000 µM", "setting": "read-out: Viability (%) of Scutica, 500 mM, reaction time 10", "value": 0, "unit": "%"}, {"measurement": "viability at 500000 µM", "setting": "read-out: Viability (%) of Scutica, 500 mM, reaction time 20", "value": 0, "unit": "%"}, {"measurement": "viability at 500000 µM", "setting": "read-out: Viability (%) of Scutica, 500 mM, reaction time 30", "value": 0, "unit": "%"}, {"measurement": "viability at 500000 µM", "setting": "read-out: Viability (%) of Scutica, 500 mM, reaction time 40", "value": 0, "unit": "%"}, {"measurement": "viability at 500000 µM", "setting": "read-out: Viability (%) of Scutica, 500 mM, reaction time 50", "value": 0, "unit": "%"}, {"measurement": "viability at 500000 µM", "setting": "read-out: Viability (%) of Scutica, 500 mM, reaction time 60", "value": 0, "unit": "%"}, {"measurement": "viability at 500000 µM", "setting": "read-out: Viability (%) of Scutica, 500 mM, reaction time 70", "value": 0, "unit": "%"}, {"measurement": "viability at 500000 µM", "setting": "read-out: Viability (%) of Scutica, 500 mM, reaction time 80", "value": 0, "unit": "%"}, {"measurement": "viability at 500000 µM", "setting": "read-out: Viability (%) of Scutica, 500 mM, reaction time 90", "value": 0, "unit": "%"}, {"measurement": "viability at 500000 µM", "setting": "read-out: Viability (%) of Scutica, 500 mM, reaction time 110", "value": 0, "unit": "%"}, {"measurement": "viability at 500000 µM", "setting": "read-out: Viability (%) of Scutica, 500 mM, reaction time 120", "value": 0, "unit": "%"}]}]}
